{"source": "patent US20110142914A1", "about": "“INHALABLE COMPOSITIONS HAVING ENHANCED BIOAVAILABILITY” (CYTOTECH LABS, LLC, priority 2007, published 2011)", "tested_on": "IL-12", "assay": "Inflammatory response to pulmonary administration: BAL supernatant ELISA for IL-12 elevation", "type": "in vivo", "settings": "mice", "protocol": "Inflammatory response to the administration of CoQ10 (or the liposomal concentrate of CoQ10 produced in Example 1 above) to the lungs. Surgery is performed on sacrificed mice to expose the pleural cavity and trachea at the throat. […] An aliquot (about 0.75 mL) of phosphate buffered saline is instilled through the cannula into the lungs and removed to wash the bronchial and alveolar surfaces. This process is repeated for a total of three washes. The phosphate buffered saline containing cells is placed into centrifuge vials and centrifuged at about 3000 rpm (MiniSpin Plus, Eppendorf International, Hamburg, Del.). The supernatant is removed leaving the collected cells in the pellet. The supernatant from the BAL (Bronchoalveolar Lavage) is analyzed by enzyme-linked immunosorbent assay (ELISA) for IL-12 elevation (n=2 per sample tested).", "data": [{"compound": "COC1=C(OC)C(=O)C(C/C=C(\\C)CC/C=C(\\C)CC/C=C(\\C)CC/C=C(\\C)CC/C=C(\\C)CC/C=C(\\C)CC/C=C(\\C)CC/C=C(\\C)CC/C=C(\\C)CCC=C(C)C)=C(C)C1=O", "note": "[CoQ10, Coenzyme Q10]", "values": [{"measurement": "inflammation of the lung", "value": "not a cause of inflammation of the lung"}, {"measurement": "rise in IL-12 levels (BAL supernatant, ELISA)", "setting": "n=2 per sample tested", "value": "not connected to a rise in IL-12 levels"}]}]}
